Source: PubChem BioAssay (NCI)
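Method: 48-hour compound exposure of cells in 96-well plates, five concentrations, linear interpolation of endpoints. GI50 marks 50% less growth. TGI: concentration producing complete growth inhibition.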

Legend:
Assay in all cases: NCI tumour cell line growth inhibition, 48 h; in the data active means GI50 below about 0.43 µM; inactive means the rest
KM12 colon = system: KM12 colon
NCI-H23 lung = system: NCI-H23 lung
HCT-15 colon = system: HCT-15 colon
SNB-19 CNS = system: SNB-19 CNS
CCRF-CEM leukemia = system: CCRF-CEM leukemia
MDA-MB-231 breast = system: MDA-MB-231 breast
T-47D breast = system: T-47D breast
RXF 393 renal = system: RXF 393 renal
SF-539 CNS = system: SF-539 CNS
TK-10 renal = system: TK-10 renal
HOP-92 NSCLC = system: HOP-92 NSCLC
M14 melanoma = system: M14 melanoma
SK-MEL-2 melanoma = system: SK-MEL-2 melanoma
UO-31 renal = system: UO-31 renal
U251 CNS = system: U251 CNS
SK-OV-3 ovarian = system: SK-OV-3 ovarian
786-0 renal = system: 786-0 renal
K-562 leukemia = system: K-562 leukemia
SN12C renal = system: SN12C renal
MCF7 breast = system: MCF7 breast
DU-145 prostate = system: DU-145 prostate
SK-MEL-28 melanoma = system: SK-MEL-28 melanoma
PC-3 prostate = system: PC-3 prostate
LOX IMVI melanoma = system: LOX IMVI melanoma
OVCAR-3 ovarian = system: OVCAR-3 ovarian
ACHN renal = system: ACHN renal
HS 578T breast = system: HS 578T breast
HT29 colon = system: HT29 colon
NCI-H522 lung = system: NCI-H522 lung
RPMI-8226 leukemia = system: RPMI-8226 leukemia
SF-295 CNS = system: SF-295 CNS
A549 NSCLC = system: A549 NSCLC
NCI-H460 lung = system: NCI-H460 lung
UACC-257 melanoma = system: UACC-257 melanoma
A498 renal = system: A498 renal
EKVX NSCLC = system: EKVX NSCLC
OVCAR-8 ovarian = system: OVCAR-8 ovarian
SF-268 CNS = system: SF-268 CNS
HCT-116 colon = system: HCT-116 colon
NCI-H226 lung = system: NCI-H226 lung
CAKI-1 renal = system: CAKI-1 renal
SK-MEL-5 melanoma = system: SK-MEL-5 melanoma
OVCAR-5 ovarian = system: OVCAR-5 ovarian
COLO 205 colon = system: COLO 205 colon
SW-620 colon = system: SW-620 colon
MDA-MB-435 = system: MDA-MB-435
MDA-MB-468 breast = system: MDA-MB-468 breast
SR leukemia = system: SR leukemia
SNB-75 CNS = system: SNB-75 CNS
OVCAR-4 ovarian = system: OVCAR-4 ovarian
HOP-62 NSCLC = system: HOP-62 NSCLC
MOLT-4 leukemia = system: MOLT-4 leukemia
IGROV1 ovarian = system: IGROV1 ovarian
HCC-2998 colon = system: HCC-2998 colon
HL-60(TB) leukemia = system: HL-60(TB) leukemia
MALME-3M melanoma = system: MALME-3M melanoma
UACC-62 melanoma = system: UACC-62 melanoma
BT-549 breast = system: BT-549 breast

O=C(/C=C/c1ccco1)c1nc2ccccc2n1Cc1ccc(Br)cc1
22.1 µM: TGI (RXF 393 renal)
68.4 µM: TGI (UACC-257 melanoma)
35 µM: TGI (SF-539 CNS)
42.3 µM: TGI (NCI-H23 lung)
65.3 µM: TGI (A498 renal)
34.1 µM: TGI (COLO 205 colon)
27.3 µM: TGI (LOX IMVI melanoma)
34.3 µM: TGI (KM12 colon)
53 µM: TGI (NCI-H226 lung)
28 µM: TGI (SK-MEL-5 melanoma)
inactive: GI50 (KM12 colon) 12.5 µM | GI50 (NCI-H23 lung) 13.7 µM | GI50 (HCT-15 colon) 6.96 µM | GI50 (SNB-19 CNS) 14.4 µM | GI50 (CCRF-CEM leukemia) 12.3 µM | GI50 (MDA-MB-231 breast) 14 µM | GI50 (T-47D breast) 6.12 µM | GI50 (RXF 393 renal) 9.57 µM | GI50 (SF-539 CNS) 17.8 µM | GI50 (TK-10 renal) 32.8 µM | GI50 (HOP-92 NSCLC) 5.77 µM | GI50 (M14 melanoma) 18.9 µM | GI50 (SK-MEL-2 melanoma) 16.3 µM | GI50 (UO-31 renal) 11 µM | GI50 (U251 CNS) 12 µM | GI50 (SK-OV-3 ovarian) 34.5 µM | GI50 (786-0 renal) 21.3 µM | GI50 (K-562 leukemia) 10.6 µM | GI50 (SN12C renal) 19.9 µM | GI50 (MCF7 breast) 2900 nM | GI50 (DU-145 prostate) 21 µM | GI50 (SK-MEL-28 melanoma) 15.6 µM | GI50 (PC-3 prostate) 23.9 µM | GI50 (LOX IMVI melanoma) 12.2 µM | GI50 (OVCAR-3 ovarian) 8.02 µM | GI50 (ACHN renal) 22 µM | GI50 (HS 578T breast) 30.4 µM | GI50 (HT29 colon) 31.1 µM | GI50 (NCI-H522 lung) 15.6 µM | GI50 (RPMI-8226 leukemia) 15.8 µM | GI50 (SF-295 CNS) 16.7 µM | GI50 (A549 NSCLC) 21.2 µM | GI50 (NCI-H460 lung) 15.2 µM | GI50 (UACC-257 melanoma) 17.4 µM | GI50 (A498 renal) 28.7 µM | GI50 (EKVX NSCLC) 26.2 µM | GI50 (OVCAR-8 ovarian) 16.6 µM | GI50 (SF-268 CNS) 27.2 µM | GI50 (HCT-116 colon) 15 µM | GI50 (NCI-H226 lung) 19.3 µM | GI50 (CAKI-1 renal) 14 µM | GI50 (SK-MEL-5 melanoma) 14.1 µM | GI50 (OVCAR-5 ovarian) 17.9 µM | GI50 (COLO 205 colon) 17.6 µM | GI50 (SW-620 colon) 12.1 µM | GI50 (MDA-MB-435) 15 µM | GI50 (MDA-MB-468 breast) 7.31 µM | GI50 (SR leukemia) 9.23 µM | GI50 (SNB-75 CNS) 13 µM | GI50 (OVCAR-4 ovarian) 23.6 µM | GI50 (HOP-62 NSCLC) 19.7 µM | GI50 (MOLT-4 leukemia) 6.57 µM | GI50 (IGROV1 ovarian) 15.6 µM | GI50 (HCC-2998 colon) 14.9 µM | GI50 (HL-60(TB) leukemia) 12.7 µM | GI50 (MALME-3M melanoma) 16 µM | GI50 (UACC-62 melanoma) 10.8 µM | GI50 (BT-549 breast) 13.8 µM
28.8 µM: TGI (HCC-2998 colon)
76.4 µM: TGI (786-0 renal)
36.9 µM: TGI (MDA-MB-435)
38.9 µM: TGI (NCI-H522 lung)
26.4 µM: TGI (UO-31 renal)
69.1 µM: TGI (ACHN renal)
23.2 µM: TGI (HCT-15 colon)
> 100 µM: TGI (CCRF-CEM leukemia) | TGI (T-47D breast) | TGI (TK-10 renal) | TGI (SK-OV-3 ovarian) | TGI (K-562 leukemia) | TGI (MCF7 breast) | TGI (DU-145 prostate) | TGI (PC-3 prostate) | TGI (HS 578T breast) | TGI (HT29 colon) | TGI (RPMI-8226 leukemia) | TGI (A549 NSCLC) | TGI (EKVX NSCLC) | TGI (SF-268 CNS) | TGI (CAKI-1 renal) | TGI (SR leukemia) | TGI (SNB-75 CNS) | TGI (OVCAR-4 ovarian) | TGI (MOLT-4 leukemia) | TGI (HL-60(TB) leukemia)
34.7 µM: TGI (SNB-19 CNS)
38.1 µM: TGI (NCI-H460 lung) | TGI (OVCAR-5 ovarian)
30.4 µM: TGI (OVCAR-3 ovarian)
34.6 µM: TGI (MDA-MB-231 breast)
26.2 µM: TGI (UACC-62 melanoma)
33.9 µM: TGI (MALME-3M melanoma)
42.1 µM: TGI (SF-295 CNS)
49.2 µM: TGI (HOP-62 NSCLC)
52.5 µM: TGI (SN12C renal)
26.9 µM: TGI (MDA-MB-468 breast)
48.4 µM: TGI (SW-620 colon)
26.8 µM: TGI (U251 CNS)
33.5 µM: TGI (HOP-92 NSCLC)
38.3 µM: TGI (M14 melanoma)
63.7 µM: TGI (IGROV1 ovarian)
32.1 µM: TGI (SK-MEL-28 melanoma)
61.7 µM: TGI (HCT-116 colon)
39.7 µM: TGI (OVCAR-8 ovarian)
35.7 µM: TGI (SK-MEL-2 melanoma) | TGI (BT-549 breast)
